This test relates to Leukotriene B4 production in ionophore-stimulated human whole blood. Kind of test: Inhibition of leukotriene B4 production in ionophore-stimulated human whole blood. Format: cell-based. To be noted: calcium ionophore stimulated, LTB4 by EIA, read-out: HWB IC50. The method, then:
Inhibition of Leukotriene B4 Production in lonophore-Stimulated Human Whole Blood
Human blood was drawn into heparinized blood collection tubes, and aliquoted in 1 ml portions into 1.5 ml microfuge tubes. Test compound ([…]) of varying concentrations, dissolved in DMSO, was added to the blood sample and incubated for 15 minutes at 37° C. Calcium ionophore ([…]) in DMSO was added to a final concentration of […], and the samples were incubated for 30 minutes at 37° C. Samples are then centrifuged at 1100×g (2500 rpm, H1000B rotor, in a Sorvall centrifuge) for 10 minutes at 4° C. Supernatant ([…]) was transferred into 1 1.5 ml microfuge tube, […] of cold methanol added, and proteins precipitated on ice for 30 minutes. The samples were centrifuged at 110×g for 10 minutes at 4° C., and the supernatant assayed for LTB4 using a commercially available EIA kit (Cayman Chemical) according to manufacturer's specifications. The following IC50 results (nM) were obtained for the specified compounds having the structures as indicated for the corresponding compound number.

What is called IC50 is the concentration needed to halve the response being measured.

For the compound `NC(=O)N(O)CCC#C[C@H]1CCC(c2cc3cc(F)ccc3o2)O1` (stereo partly drawn) [Compound 6B], the IC50 worked out at 388 nM.
In the case of `NC(=O)N(O)CCC#C[C@H]1CC[C@@H](c2cc3ccccc3s2)O1` [Compound 2B], the IC50 is 878 nM.
Next, `NC(=O)N(O)CCC#C[C@@H]1CCC(c2cc3cc(F)ccc3o2)O1` (stereo partly drawn) [Compound 6A]: 101 nM; `NC(=O)N(O)CCC#C[C@@H]1CC[C@@H](c2cc3ccccc3s2)O1` [Compound 2A]: 112 nM; `NC(=O)N(O)CCC#C[C@@H]1CC[C@H](c2cc3cc(C(F)(F)F)ccc3o2)O1` [Compound 4B]: 298 nM.
Under `C[C@@H](C#C[C@@H]1CC[C@@H](c2cc3ccccc3s2)O1)N(O)C(N)=O` [Compound 3] stands 197 nM.

The values are drawn from patent publication US20030055084A1, “Pharmaceutical compounds and methods of use thereof” (Millennium Pharmaceutical, Inc., priority 2001, published 2003).
